Test results: PMC10178848, “Modulating fast skeletal muscle contraction protects skeletal muscle in animal models of Duchenne muscular dystrophy” (The Journal of Clinical Investigation, 2023)
Read-outs that look alike come from different tables or passages of the source.

Tested on: GRMD plasma proteins
Format: in vivo, dog
[1] = Post-Treatment to GRMD baseline, Decreased in GRMD

O=c1ccc(-c2cnc(OCC(F)(F)F)nc2)nn1Cc1cncc(F)c1 [EDG-5506]
Change from GRMD Baseline (fraction) (Human Chorionic Gonadotropin (CGA CGB), Post-Treatment to GRMD baseline): 2.5964 fraction | Change from GRMD Baseline (fraction) (Insulin (INS), EDG-5506 treatment to GRMD baseline): 0.2426 fraction | Change from GRMD Baseline (fraction) (Insulin (INS), Post-Treatment to GRMD baseline): 0.0736 fraction | Change from GRMD Baseline (fraction) (Interferon lambda-2 (IFNL2), EDG-5506 treatment to GRMD baseline): 0.1683 fraction | Change from GRMD Baseline (fraction) (Interferon lambda-2 (IFNL2), Post-Treatment to GRMD baseline): 0.4121 fraction | Change from GRMD Baseline (fraction) (Interleukin-12 (IL12A IL12B), EDG-5506 treatment to GRMD baseline): 0.1563 fraction | Change from GRMD Baseline (fraction) (Interleukin-12 (IL12A IL12B), Post-Treatment to GRMD baseline): 0.0477 fraction | Change from GRMD Baseline (fraction) (Leucine-rich repeat transmembrane protein FLRT2 (FLRT2), EDG-5506 treatment to GRMD baseline): 0.1078 fraction | Change from GRMD Baseline (fraction) (Leucine-rich repeat transmembrane protein FLRT2 (FLRT2), Post-Treatment to GRMD baseline): -0.1244 fraction | Change from GRMD Baseline (fraction) (Megakaryocyte-associated tyrosine-protein kinase (MATK), EDG-5506 treatment to GRMD baseline): 0.083 fraction | Change from GRMD Baseline (fraction) (Megakaryocyte-associated tyrosine-protein kinase (MATK), Post-Treatment to GRMD baseline): 0.0043 fraction | Change from GRMD Baseline (fraction) (Mitogen-activated protein kinase 9 (MAPK9), EDG-5506 treatment to GRMD baseline): 0.1873 fraction | Change from GRMD Baseline (fraction) (Mitogen-activated protein kinase 9 (MAPK9), Post-Treatment to GRMD baseline): -0.0197 fraction | Change from GRMD Baseline (fraction) (Myc proto-oncogene protein (MYC), EDG-5506 treatment to GRMD baseline): 0.0043 fraction | Change from GRMD Baseline (fraction) (Myc proto-oncogene protein (MYC), Post-Treatment to GRMD baseline): 0.0245 fraction | Change from GRMD Baseline (fraction) (Nascent polypeptide-associated complex subunit alpha (NACA), EDG-5506 treatment to GRMD baseline): -0.0939 fraction | Change from GRMD Baseline (fraction) (Nascent polypeptide-associated complex subunit alpha (NACA), Post-Treatment to GRMD baseline): -0.019 fraction | Change from GRMD Baseline (fraction) (Neurexin-1-beta (NRXN1), EDG-5506 treatment to GRMD baseline): 0.163 fraction | Change from GRMD Baseline (fraction) (Neurexin-1-beta (NRXN1), Post-Treatment to GRMD baseline): 0.0798 fraction | Change from GRMD Baseline (fraction) (Neuropilin-1 (NRP1), EDG-5506 treatment to GRMD baseline): -0.1066 fraction | Change from GRMD Baseline (fraction) (Neuropilin-1 (NRP1), Post-Treatment to GRMD baseline): -0.2144 fraction | Change from GRMD Baseline (fraction) (Neutrophil elastase (ELANE), EDG-5506 treatment to GRMD baseline): 0.113 fraction | Change from GRMD Baseline (fraction) (Neutrophil elastase (ELANE), Post-Treatment to GRMD baseline): 0.0205 fraction | Change from GRMD Baseline (fraction) (Neutrophil-activating peptide 2 (PPBP), EDG-5506 treatment to GRMD baseline): -0.0999 fraction | Change from GRMD Baseline (fraction) (Neutrophil-activating peptide 2 (PPBP), Post-Treatment to GRMD baseline): 0.0464 fraction | Change from GRMD Baseline (fraction) (Osteocalcin (BGLAP), EDG-5506 treatment to GRMD baseline): 0.2208 fraction | Change from GRMD Baseline (fraction) (Osteocalcin (BGLAP), Post-Treatment to GRMD baseline): -0.0043 fraction | Change from GRMD Baseline (fraction) (PILR alpha-associated neural protein (PIANP), EDG-5506 treatment to GRMD baseline): 0.0458 fraction | Change from GRMD Baseline (fraction) (PILR alpha-associated neural protein (PIANP), Post-Treatment to GRMD baseline): -0.0155 fraction | Change from GRMD Baseline (fraction) (Periostin (POSTN), EDG-5506 treatment to GRMD baseline): 0.1077 fraction | Change from GRMD Baseline (fraction) (Periostin (POSTN), Post-Treatment to GRMD baseline): -0.1102 fraction | Change from GRMD Baseline (fraction) (Pleiotrophin (PTN), EDG-5506 treatment to GRMD baseline): 0.0122 fraction | Change from GRMD Baseline (fraction) (Pleiotrophin (PTN), Post-Treatment to GRMD baseline): -0.0998 fraction | 3-hydroxyisobutyrate dehydrogenase, mitochondrial (HIBADH): Change from GRMD Baseline (fraction) [1]: 0.0399 fraction | 14-3-3 protein beta/alpha (YWHAB): Change from GRMD Baseline (fraction) [1]: -0.1281 fraction | 14-3-3 protein sigma (SFN): Change from GRMD Baseline (fraction) [1]: -0.1134 fraction | 72 kDa type IV collagenase (MMP2): Change from GRMD Baseline (fraction) [1]: -0.3542 fraction | Adrenomedullin (ADM): Change from GRMD Baseline (fraction) [1]: -0.0931 fraction | Aggrecan core protein (ACAN): Change from GRMD Baseline (fraction) [1]: -0.1233 fraction | Alpha-synuclein (SNCA): Change from GRMD Baseline (fraction) [1]: -0.0439 fraction | Apolipoprotein B (APOB): Change from GRMD Baseline (fraction) [1]: -0.0228 fraction | Appetite-regulating hormone (GHRL): Change from GRMD Baseline (fraction) [1]: 0.0233 fraction | Atrial natriuretic factor (NPPA): Change from GRMD Baseline (fraction) [1]: 0.0027 fraction | BDNF/NT-3 growth factors receptor (NTRK2): Change from GRMD Baseline (fraction) [1]: -0.0065 fraction | BH3-interacting domain death agonist (BID): Change from GRMD Baseline (fraction) [1]: 0.0184 fraction | Bcl-2-related protein A1 (BCL2A1): Change from GRMD Baseline (fraction) [1]: 0.0661 fraction | Bone morphogenetic protein 6 (BMP6): Change from GRMD Baseline (fraction) [1]: -0.0925 fraction | Bone morphogenetic protein 10 (BMP10): Change from GRMD Baseline (fraction) [1]: -0.0513 fraction | C-X-C motif chemokine 10 (CXCL10): Change from GRMD Baseline (fraction) [1]: 0.0358 fraction | C-type mannose receptor 2 (MRC2): Change from GRMD Baseline (fraction) [1]: -0.1031 fraction | CD166 antigen (ALCAM): Change from GRMD Baseline (fraction) [1]: 0.0066 fraction | Cadherin-5 (CDH5): Change from GRMD Baseline (fraction) [1]: -0.1425 fraction | Carboxypeptidase E (CPE): Change from GRMD Baseline (fraction) [1]: 0.0109 fraction | Cell adhesion molecule 1 (CADM1): Change from GRMD Baseline (fraction) [1]: -0.1579 fraction | Chromogranin-A (CHGA): Change from GRMD Baseline (fraction) [1]: 0.0248 fraction | Ciliary neurotrophic factor receptor subunit alpha (CNTFR): Change from GRMD Baseline (fraction) [1]: -0.0624 fraction | Ck-beta-8-1 (CCL23): Change from GRMD Baseline (fraction) [1]: 0.0454 fraction | Coiled-coil domain-containing protein 80 (CCDC80): Change from GRMD Baseline (fraction) [1]: 0.0372 fraction | Collagen alpha-1(VIII) chain (COL8A1): Change from GRMD Baseline (fraction) [1]: 0.1221 fraction | Collagenase 3 (MMP13): Change from GRMD Baseline (fraction) [1]: -0.3148 fraction | Collectin-12 (COLEC12): Change from GRMD Baseline (fraction) [1]: -0.0046 fraction | Complement component C1q receptor (CD93): Change from GRMD Baseline (fraction) [1]: -0.1418 fraction | Complement decay-accelerating factor (CD55): Change from GRMD Baseline (fraction) [1]: 0.0605 fraction | Contactin-1 (CNTN1): Change from GRMD Baseline (fraction) [1]: -0.0113 fraction | Corticotropin (POMC): Change from GRMD Baseline (fraction) [1]: 0.0912 fraction | Cytotoxic and regulatory T-cell molecule (CRTAM): Change from GRMD Baseline (fraction) [1]: 0.2824 fraction | Dickkopf-related protein 1 (DKK1): Change from GRMD Baseline (fraction) [1]: -0.0925 fraction | Dickkopf-related protein 4 (DKK4): Change from GRMD Baseline (fraction) [1]: -0.1272 fraction | E3 ubiquitin-protein ligase ZNRF3 (ZNRF3): Change from GRMD Baseline (fraction) [1]: 0.0469 fraction | Ephrin type-A receptor 5 (EPHA5): Change from GRMD Baseline (fraction) [1]: -0.1823 fraction | Ephrin-A2 (EFNA2): Change from GRMD Baseline (fraction) [1]: -0.0773 fraction | Ephrin-A5 (EFNA5): Change from GRMD Baseline (fraction) [1]: -0.1613 fraction | Epidermal growth factor receptor (EGFR): Change from GRMD Baseline (fraction) [1]: -0.0135 fraction | Estradiol 17-beta-dehydrogenase 1 (HSD17B1): Change from GRMD Baseline (fraction) [1]: 0.0729 fraction | Fatty acid-binding protein, epidermal (FABP5): Change from GRMD Baseline (fraction) [1]: 0.3761 fraction | Fc receptor-like protein 3 (FCRL3): Change from GRMD Baseline (fraction) [1]: -0.0287 fraction | GDNF family receptor alpha-2 (GFRA2): Change from GRMD Baseline (fraction) [1]: -0.0362 fraction | Galectin-8 (LGALS8): Change from GRMD Baseline (fraction) [1]: 0.1492 fraction | Galectin-9 (LGALS9): Change from GRMD Baseline (fraction) [1]: -0.0107 fraction | Gamma-enolase (ENO2): Change from GRMD Baseline (fraction) [1]: -0.0983 fraction | Gastrin-releasing peptide (GRP): Change from GRMD Baseline (fraction) [1]: 0.0411 fraction | Glutamate carboxypeptidase 2 (FOLH1): Change from GRMD Baseline (fraction) [1]: 0.145 fraction | Glypican-2 (GPC2): Change from GRMD Baseline (fraction) [1]: 0.075 fraction | Gremlin-1 (GREM1): Change from GRMD Baseline (fraction) [1]: 0.1318 fraction | Growth/differentiation factor 8 (MSTN): Change from GRMD Baseline (fraction) [1]: 0.065 fraction | Growth/differentiation factor 11/8 (GDF11 MSTN): Change from GRMD Baseline (fraction) [1]: -0.0539 fraction | Hemoglobin (HBA1 HBB): Change from GRMD Baseline (fraction) [1]: -0.0209 fraction | Heparin cofactor 2 (SERPIND1): Change from GRMD Baseline (fraction) [1]: 0.014 fraction | Hepatitis A virus cellular receptor 2 (HAVCR2): Change from GRMD Baseline (fraction) [1]: 0.0719 fraction | High affinity immunoglobulin gamma Fc receptor I (FCGR1A): Change from GRMD Baseline (fraction) [1]: 0.0477 fraction | Histone-lysine N-methyltransferase EHMT2 (EHMT2): Change from GRMD Baseline (fraction) [1]: -0.0469 fraction | Hyaluronan and proteoglycan link protein 1 (HAPLN1): Change from GRMD Baseline (fraction) [1]: -0.1275 fraction | Insulin-like growth factor 1 receptor (IGF1R): Change from GRMD Baseline (fraction) [1]: -0.1027 fraction | Integrin alpha-V: beta-5 complex (ITGAV ITGB5): Change from GRMD Baseline (fraction) [1]: 0.0267 fraction | Interleukin-4 receptor subunit alpha (IL4R): Change from GRMD Baseline (fraction) [1]: 0.0286 fraction | Interleukin-18-binding protein (IL18BP): Change from GRMD Baseline (fraction) [1]: -0.0841 fraction | Interstitial collagenase (MMP1): Change from GRMD Baseline (fraction) [1]: 0.1983 fraction | Leucine-rich repeat transmembrane neuronal protein 3 (LRRTM3): Change from GRMD Baseline (fraction) [1]: 0.0593 fraction | Limbic system-associated membrane protein (LSAMP): Change from GRMD Baseline (fraction) [1]: -0.0633 fraction | Lymphocyte activation gene 3 protein (LAG3): Change from GRMD Baseline (fraction) [1]: 0.8111 fraction | Lysosome membrane protein 2 (SCARB2): Change from GRMD Baseline (fraction) [1]: 0.1572 fraction | MHC class I polypeptide-related sequence B (MICB): Change from GRMD Baseline (fraction) [1]: 0.6204 fraction | Matrilin-2 (MATN2): Change from GRMD Baseline (fraction) [1]: -0.1616 fraction | Melanoma-derived growth regulatory protein (MIA): Change from GRMD Baseline (fraction) [1]: -0.1058 fraction | Moesin (MSN): Change from GRMD Baseline (fraction) [1]: 0.1568 fraction | Muellerian-inhibiting factor (AMH): Change from GRMD Baseline (fraction) [1]: 0.0468 fraction | NKG2D ligand 1 (ULBP1): Change from GRMD Baseline (fraction) [1]: -0.0033 fraction | NT-3 growth factor receptor (NTRK3): Change from GRMD Baseline (fraction) [1]: -0.1478 fraction | Netrin receptor UNC5C (UNC5C): Change from GRMD Baseline (fraction) [1]: -0.0587 fraction | Neurogenic locus notch homolog protein 2 (NOTCH2): Change from GRMD Baseline (fraction) [1]: 0.0095 fraction | Neurogenic locus notch homolog protein 3 (NOTCH3): Change from GRMD Baseline (fraction) [1]: -0.0751 fraction | Nuclear receptor subfamily 1 group D member 1 (NR1D1): Change from GRMD Baseline (fraction) [1]: 0.0266 fraction | Phospholipase A2 (PLA2G1B): Change from GRMD Baseline (fraction) [1]: -0.0833 fraction | Placenta growth factor (PGF): Change from GRMD Baseline (fraction) [1]: -0.1111 fraction | Plasminogen (PLG): Change from GRMD Baseline (fraction) [1]: 0.0803 fraction | PolyUbiquitin K63-linked (UBC): Change from GRMD Baseline (fraction) [1]: 0.2532 fraction | Proteasome activator complex subunit 3 (PSME3): Change from GRMD Baseline (fraction) [1]: 0.0489 fraction | Protein S100-A4 (S100A4): Change from GRMD Baseline (fraction) [1]: -0.1235 fraction | Protein amnionless (AMN): Change from GRMD Baseline (fraction) [1]: 0.002 fraction
